In paper PMC8434050, “Design, Synthesis and SAR in 2,4,7-Trisubstituted Pyrido[3,2-d]Pyrimidine Series as Novel PI3K/mTOR Inhibitors” (Molecules, 2021):

Tests used:
[1] = system: mammary carcinoma MDA-MB231; assay: Cytotoxic assay on MDA-MB231; format: cell-based; conditions: Homo sapiens, MDA-MB-231; 48 h of treatment, cell number by Hoechst nuclei staining, mean of triplicate
Method: (§1) Cell culture. Skin normal fibroblastic cells were purchased from Lonza (Basel, Switzerland), HuH7, Caco-2, MDA-MB-231 and Hacat cancer cell lines were obtained from the ECACC collection (Porton Down, UK). Cells were grown at 37 °C, 5% CO2 in ECACC recommended media: DMEM for HuH7, MDA-MB-231 and fibroblast, EMEM for CaCo-2 and Hacat. All culture media were supplemented by 10% of FBS, 1% of penicillin-streptomycin and 2 mM glutamine.
(§2) Cytotoxic assay. Chemicals were solubilized in DMSO at a concentration of 10 mM (stock solution) and diluted in culture medium to the desired final concentrations. […] Cells were plated in 96-well plates (4000 cells/well). Twenty-four hours after seeding, cells were exposed to chemicals. After 48h of treatment, cells were washed in PBS and fixed in cooled 90% ethanol/5% acetic acid for 20 min and the nuclei were stained with Hoechst 33,342 (B2261 Sigma). Image acquisition and analysis were performed using a Cellomics ArrayScan VTI/HCS Reader (ThermoScientific). The survival percentages were calculated as the percentage of cell number after compound treatment over cell number after DMSO treatment. The relative IC50 were calculated using the curve fitting XLfit 5.5.0.5 (idbs) integrated in Microsoft Excel as an add-on. The 4 Parameter Logistic Model or Sigmoidal Dose-Response Model was used (fit = (A + ((B − A)/(1 + ((C/x)^D))))).

[2] = system: normal human fibroblast; assay: Cytotoxic assay on fibroblasts; format: cell-based; conditions: 48 h of treatment, cell number by Hoechst nuclei staining, mean of triplicate
Method: as §1, §2

[3] = molecular target: mTOR (Homo sapiens, UniProt P42345); assay: mTOR kinase assay (LANCE Ultra kit; capillary electrophoresis assay); format: biochemical; conditions: selectivity index, IC50 mTOR / IC50 PI3Kα
Method: The amount of antibody bound to the peptide is directly related to its rate of phosphorylation. […] The experimental process was the following: inhibitor solution (2.5 µL) was injected in a plate followed by the addition of 2.5 µL of mTOR, and ATP/peptide (2.5 µL) solutions. After incubating for two hours at room temperature with no agitation and with the plate sealed, the kinase reaction was stopped by adding 5 μL of a solution at 32 mM EDTA. After 5 min of plate agitation, the detection solution (CR97-100, Perkin-Elmer) containing the antibody (5 μL) was added in each well to yield a final concentration of 2 nM of the antibody. The plate was sealed and incubated for the optimal time of 1h at room temperature without shaking before the assay readout at 665 nm.
The CE system used was a 1600 Hewlett Packard^3DCE (Agilent, Waldbronn, Germany) equipped with a photodiode array detection system. […]
All solutions were prepared with pure water, filtered through 0.45 µm PVDF Filter and stored at 4 °C. […] Their pH was measured with a MeterLab PHM201 Portable pH-Meter (Radiometer Analytical, Villeurbanne, France). […]

[4] = molecular target: PI3Kβ (Homo sapiens, UniProt P42338); assay: PI3K isoform kinase assay, β (CE-assay); format: biochemical; conditions: read-out: IC50 on PI3K Isoforms, β
Sequence of PI3Kβ (P42338 whole entry, canonical isoform): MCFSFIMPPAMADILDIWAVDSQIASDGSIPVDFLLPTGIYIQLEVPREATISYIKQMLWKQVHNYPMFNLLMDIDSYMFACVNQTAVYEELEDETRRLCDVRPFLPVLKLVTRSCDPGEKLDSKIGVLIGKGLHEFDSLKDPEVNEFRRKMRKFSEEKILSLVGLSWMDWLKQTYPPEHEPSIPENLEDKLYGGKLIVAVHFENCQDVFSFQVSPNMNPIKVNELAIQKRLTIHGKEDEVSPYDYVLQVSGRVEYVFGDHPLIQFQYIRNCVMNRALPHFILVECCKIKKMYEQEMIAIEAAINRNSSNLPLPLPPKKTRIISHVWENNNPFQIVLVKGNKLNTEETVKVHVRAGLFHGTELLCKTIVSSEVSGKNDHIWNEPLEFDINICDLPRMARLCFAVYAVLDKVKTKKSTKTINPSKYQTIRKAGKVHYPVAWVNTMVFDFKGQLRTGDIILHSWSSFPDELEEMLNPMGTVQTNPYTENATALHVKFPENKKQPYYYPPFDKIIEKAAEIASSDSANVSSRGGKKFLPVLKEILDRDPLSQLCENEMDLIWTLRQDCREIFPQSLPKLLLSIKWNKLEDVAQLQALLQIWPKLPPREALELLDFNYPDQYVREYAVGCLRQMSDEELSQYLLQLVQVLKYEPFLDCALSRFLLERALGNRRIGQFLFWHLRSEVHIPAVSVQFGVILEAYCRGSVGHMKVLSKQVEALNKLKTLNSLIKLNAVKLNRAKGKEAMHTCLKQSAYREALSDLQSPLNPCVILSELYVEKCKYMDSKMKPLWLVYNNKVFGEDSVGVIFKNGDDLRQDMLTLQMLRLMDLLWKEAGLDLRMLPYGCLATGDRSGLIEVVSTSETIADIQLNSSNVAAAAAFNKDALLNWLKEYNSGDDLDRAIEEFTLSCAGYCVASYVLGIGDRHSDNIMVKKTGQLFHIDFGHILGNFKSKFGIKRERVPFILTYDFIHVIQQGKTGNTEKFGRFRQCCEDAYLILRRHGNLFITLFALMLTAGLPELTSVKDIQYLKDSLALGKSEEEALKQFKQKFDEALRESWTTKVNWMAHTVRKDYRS
Sequence of PI3Kβ (P27986 whole entry partner, canonical isoform): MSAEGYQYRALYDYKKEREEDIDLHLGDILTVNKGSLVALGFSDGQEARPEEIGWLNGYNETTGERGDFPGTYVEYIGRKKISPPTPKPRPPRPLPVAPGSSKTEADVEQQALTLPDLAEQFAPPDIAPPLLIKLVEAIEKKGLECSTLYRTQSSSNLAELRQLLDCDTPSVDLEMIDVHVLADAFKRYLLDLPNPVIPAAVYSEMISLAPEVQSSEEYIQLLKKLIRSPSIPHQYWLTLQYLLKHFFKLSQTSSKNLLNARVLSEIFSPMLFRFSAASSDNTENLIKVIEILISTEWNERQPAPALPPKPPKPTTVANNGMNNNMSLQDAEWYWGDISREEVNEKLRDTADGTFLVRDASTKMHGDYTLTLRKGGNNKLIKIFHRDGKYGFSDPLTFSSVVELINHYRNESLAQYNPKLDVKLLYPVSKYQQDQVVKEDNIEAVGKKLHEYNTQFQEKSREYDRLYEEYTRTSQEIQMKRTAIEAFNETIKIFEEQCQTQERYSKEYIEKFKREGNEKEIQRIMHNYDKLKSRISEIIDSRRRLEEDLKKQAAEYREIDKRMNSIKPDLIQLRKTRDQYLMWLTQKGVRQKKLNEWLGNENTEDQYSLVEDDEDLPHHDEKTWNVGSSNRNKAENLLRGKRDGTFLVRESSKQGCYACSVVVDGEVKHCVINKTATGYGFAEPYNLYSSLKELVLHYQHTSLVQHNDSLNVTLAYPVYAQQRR
Method: (§3) The CE system used was a 1600 Hewlett Packard^3DCE (Agilent, Waldbronn, Germany) equipped with a photodiode array detection system. Agilent software 3D-CE Chemstation (rev B.04.02) was used to pilot the CE system and for signal acquisition. CE analyses were performed in silica capillaries (66 cm total length, 57.5 cm effective length, 50 µm i.d.) purchased from Polymicro Technologies (Phoenix, AZ, USA). New capillaries were conditioned by 1.0 M NaOH for 30 min and water for 5 min. They were then coated by rinsing with cationic PDADMAC solution (0.2% w/v). The separation was conducted at −30 kV (reverse polarity) and at 30 °C. All rinse cycles were carried out at 4 bars. Between runs, the capillary was flushed for 1 min with water, 2 min with PDADMAC and 3 min with BGE.
(§4) All solutions were prepared with pure water, filtered through 0.45 µm PVDF Filter and stored at 4 °C. For PI3K and mTOR assays, the incubation buffer was HEPES/NaOH/MgCl2 (25 mM/8.84 mM/5 mM). Its pH was 7.2 and ionic strength was about 60 mM. […] Their pH was measured with a MeterLab PHM201 Portable pH-Meter (Radiometer Analytical, Villeurbanne, France). […]
(§5) In all enzymatic assays, after incubation, the electric field (of −30 kV) was applied to separate the ADP formed during the enzymatic reaction from the other reactants. ADP was detected at 254 nm for quantification. […]

[5] = molecular target: PI3Kγ (Homo sapiens, UniProt P48736); assay: PI3K isoform kinase assay, γ (CE-assay); format: biochemical; conditions: read-out: IC50 on PI3K Isoforms, γ
Sequence of PI3Kγ (P48736 whole entry, canonical isoform): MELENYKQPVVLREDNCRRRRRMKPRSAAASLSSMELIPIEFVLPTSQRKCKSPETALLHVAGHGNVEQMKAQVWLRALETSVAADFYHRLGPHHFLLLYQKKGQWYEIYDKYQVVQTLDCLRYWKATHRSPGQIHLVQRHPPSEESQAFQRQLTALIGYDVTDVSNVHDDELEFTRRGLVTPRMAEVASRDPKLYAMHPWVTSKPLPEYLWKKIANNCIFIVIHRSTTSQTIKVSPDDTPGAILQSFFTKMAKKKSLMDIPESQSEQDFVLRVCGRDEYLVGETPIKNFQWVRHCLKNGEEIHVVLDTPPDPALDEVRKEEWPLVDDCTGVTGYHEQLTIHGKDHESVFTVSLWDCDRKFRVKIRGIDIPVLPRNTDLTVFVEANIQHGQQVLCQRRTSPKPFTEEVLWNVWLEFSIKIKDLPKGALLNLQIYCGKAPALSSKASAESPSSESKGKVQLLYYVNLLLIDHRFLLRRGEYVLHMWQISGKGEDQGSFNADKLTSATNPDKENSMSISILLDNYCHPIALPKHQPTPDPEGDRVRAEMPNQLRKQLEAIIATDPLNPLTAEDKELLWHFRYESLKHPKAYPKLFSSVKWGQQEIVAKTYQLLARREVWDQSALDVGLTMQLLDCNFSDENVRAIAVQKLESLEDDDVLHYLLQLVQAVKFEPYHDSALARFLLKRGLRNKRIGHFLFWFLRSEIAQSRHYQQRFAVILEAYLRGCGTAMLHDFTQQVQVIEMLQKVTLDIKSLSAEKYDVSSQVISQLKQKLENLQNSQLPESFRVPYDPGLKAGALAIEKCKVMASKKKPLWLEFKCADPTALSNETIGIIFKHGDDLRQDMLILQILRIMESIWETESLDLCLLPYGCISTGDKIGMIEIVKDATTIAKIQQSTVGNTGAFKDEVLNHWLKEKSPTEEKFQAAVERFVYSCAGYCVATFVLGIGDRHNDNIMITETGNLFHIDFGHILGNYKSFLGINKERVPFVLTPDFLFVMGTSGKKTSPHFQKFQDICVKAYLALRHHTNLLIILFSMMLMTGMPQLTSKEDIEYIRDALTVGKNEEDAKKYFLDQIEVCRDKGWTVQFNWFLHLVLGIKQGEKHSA
Method: as §3, §4, §5

[6] = molecular target: PI3Kδ (Homo sapiens, UniProt O00329); assay: PI3K isoform kinase assay, δ (CE-assay); format: biochemical; conditions: read-out: IC50 on PI3K Isoforms, δ
Sequence of PI3Kδ (O00329 whole entry, canonical isoform): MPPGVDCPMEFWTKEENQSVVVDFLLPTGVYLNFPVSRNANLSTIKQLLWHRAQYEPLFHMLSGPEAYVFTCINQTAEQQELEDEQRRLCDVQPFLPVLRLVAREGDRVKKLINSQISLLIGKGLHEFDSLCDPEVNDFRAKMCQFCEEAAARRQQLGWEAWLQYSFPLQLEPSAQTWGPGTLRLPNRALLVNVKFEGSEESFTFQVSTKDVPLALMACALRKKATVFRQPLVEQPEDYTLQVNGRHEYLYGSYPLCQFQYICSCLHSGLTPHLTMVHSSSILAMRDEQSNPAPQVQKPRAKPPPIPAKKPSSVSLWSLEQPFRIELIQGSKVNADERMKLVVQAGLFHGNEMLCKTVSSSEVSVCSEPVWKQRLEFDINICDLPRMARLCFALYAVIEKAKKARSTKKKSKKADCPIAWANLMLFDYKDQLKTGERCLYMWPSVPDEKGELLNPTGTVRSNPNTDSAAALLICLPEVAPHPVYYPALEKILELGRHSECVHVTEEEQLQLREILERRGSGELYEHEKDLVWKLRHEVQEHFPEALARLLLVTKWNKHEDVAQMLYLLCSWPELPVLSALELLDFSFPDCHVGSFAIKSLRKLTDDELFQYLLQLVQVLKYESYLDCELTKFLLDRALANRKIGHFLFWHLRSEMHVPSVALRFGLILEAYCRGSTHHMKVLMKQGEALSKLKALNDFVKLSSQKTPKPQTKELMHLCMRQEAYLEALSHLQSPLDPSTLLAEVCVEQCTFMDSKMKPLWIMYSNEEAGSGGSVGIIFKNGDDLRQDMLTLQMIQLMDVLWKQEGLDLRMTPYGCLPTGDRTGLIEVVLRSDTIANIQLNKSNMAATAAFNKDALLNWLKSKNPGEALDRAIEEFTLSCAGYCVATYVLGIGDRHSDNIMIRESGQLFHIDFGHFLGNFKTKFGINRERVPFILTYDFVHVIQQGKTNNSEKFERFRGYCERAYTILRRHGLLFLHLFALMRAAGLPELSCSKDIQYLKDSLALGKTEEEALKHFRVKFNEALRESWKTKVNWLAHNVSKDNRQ
Sequence of PI3Kδ (P27986 whole entry partner, canonical isoform): as the sequence (P27986 whole entry partner, canonical isoform) above
Method: as §3, §4, §5

[7] = molecular target: PI3Kα (Homo sapiens, UniProt P42336); assay: PI3Kα kinase assay (Adapta TR-FRET kit; capillary electrophoresis assay); format: biochemical; conditions: for IC50: mean of a triplicate experiment, standard deviation in small letters
Sequence of PI3Kα (P42336 whole entry): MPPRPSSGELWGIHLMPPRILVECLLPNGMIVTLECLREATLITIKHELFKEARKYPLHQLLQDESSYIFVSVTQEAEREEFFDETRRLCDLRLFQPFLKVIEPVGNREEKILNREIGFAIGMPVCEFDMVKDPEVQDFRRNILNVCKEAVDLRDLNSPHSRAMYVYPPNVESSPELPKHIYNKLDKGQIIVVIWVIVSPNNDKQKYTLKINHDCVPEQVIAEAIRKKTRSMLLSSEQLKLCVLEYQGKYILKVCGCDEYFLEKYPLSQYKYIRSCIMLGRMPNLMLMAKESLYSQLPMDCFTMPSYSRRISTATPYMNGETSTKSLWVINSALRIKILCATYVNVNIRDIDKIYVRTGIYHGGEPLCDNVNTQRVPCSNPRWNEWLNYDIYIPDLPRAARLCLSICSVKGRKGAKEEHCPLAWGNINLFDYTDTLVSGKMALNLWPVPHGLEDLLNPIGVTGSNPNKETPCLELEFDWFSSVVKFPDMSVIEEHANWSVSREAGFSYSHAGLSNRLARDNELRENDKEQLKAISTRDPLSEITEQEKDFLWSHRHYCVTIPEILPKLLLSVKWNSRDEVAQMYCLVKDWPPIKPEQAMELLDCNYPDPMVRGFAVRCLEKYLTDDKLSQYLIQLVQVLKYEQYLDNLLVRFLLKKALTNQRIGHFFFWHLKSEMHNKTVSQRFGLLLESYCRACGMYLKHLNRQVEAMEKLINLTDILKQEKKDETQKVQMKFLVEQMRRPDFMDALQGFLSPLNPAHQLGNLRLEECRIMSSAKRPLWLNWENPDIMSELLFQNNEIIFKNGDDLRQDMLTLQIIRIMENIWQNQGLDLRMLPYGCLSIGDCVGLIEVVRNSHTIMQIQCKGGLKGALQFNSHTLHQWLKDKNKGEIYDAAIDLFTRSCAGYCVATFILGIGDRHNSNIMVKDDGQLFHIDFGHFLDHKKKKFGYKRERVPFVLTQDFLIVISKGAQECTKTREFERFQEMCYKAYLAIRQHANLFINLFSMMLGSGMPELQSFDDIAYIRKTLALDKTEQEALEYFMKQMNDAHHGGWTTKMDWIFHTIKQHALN
Sequence of PI3Kα (P27986 whole entry partner): as the sequence (P27986 whole entry partner, canonical isoform) above

| SI (mTOR/PI3Kα Ratio) [3] | IC50 [4] [nM] | IC50 [5] [nM] | IC50 [6] [nM] | fold reduction in the PI3Kα inhibition level ([7]; C-7 hydroxymethyl compared with chlorine or methyl derivatives 5 and 6) [fold] | IC50 [7] [nM] | Structure (SMILES) | IC50 [1] [nM] | IC50 [2] [nM] |
| --- | --- | --- | --- | --- | --- | --- | --- | --- |
|  |  |  |  | 30 |  | OCc1cnc2c(N3CCOCC3)nc(-c3cccc(O)c3)nc2c1 [Compound 15, 3-(7-(Hydroxymethyl)-4-morpholinylpyrido[3,2-d]pyrimidin-2-yl)phenol] |  |  |
|  | 50 | 2000 | 1200 |  | 10 | COCc1cn(Cc2cnc3c(N4CCOCC4)nc(-c4cccc(O)c4)nc3c2)nn1 [Compound 21, 3-(7-((4-(Methoxymethyl)-1H-1.2.3-triazol-1-yl)methyl)-4-morpholinylpyrido[3,2-d]pyrimidin-2-yl)phenol] |  | > 25000 |
| 33.3 |  |  |  |  | 3 | CO/N=C/c1cnc2c(N3CCOCC3)nc(-c3cccc(O)c3)nc2c1 [Compound 32, 2-(3-Hydroxyphenyl)-4-morpholinylpyrido[3,2-d]pyrimidine-7-carbaldehyde O-methyl oxime] | > 25000 |  |

Further lines, the compound ahead of its results:

| Structure (SMILES) | SI (mTOR/PI3Kα Ratio) [3] | IC50 [4] [nM] | IC50 [5] [nM] | IC50 [6] [nM] | fold reduction in the PI3Kα inhibition level ([7]; C-7 hydroxymethyl compared with chlorine or methyl derivatives 5 and 6) [fold] | IC50 [7] [nM] | IC50 [1] [nM] | IC50 [2] [nM] |
| --- | --- | --- | --- | --- | --- | --- | --- | --- |
| Oc1cccc(-c2nc(N3CCOCC3)c3ncc(Cl)cc3n2)c1 [Compound 5, 7-Chloro-2-(3-hydroxyphenyl)-4-morpholinylpyrido[3,2-d]pyrimidine] |  |  |  |  |  |  | > 25000 | > 25000 |
| Cc1cnc2c(N3CCOCC3)nc(-c3cccc(O)c3)nc2c1 [Compound 6, 3-(7-Methyl-4-morpholinylpyrido[3,2-d]pyrimidin-2-yl)phenol] | 4.6 | 450 | 5500 | 1400 |  |  |  |  |
| [N-]=[N+]=NCc1cnc2c(N3CCOCC3)nc(-c3cccc(O)c3)nc2c1 [Compound 19, 3-(7-(Azidomethyl)-4-morpholinylpyrido[3,2-d]pyrimidin-2-yl)phenol] |  |  |  |  |  |  | > 25000 | > 25000 |
